Experimental data from patent US9718826B2, “Imidazopyrazinone derivatives” (Merck Patent GmbH, priority 2013, dated 2017).

How the values were obtained:
[1] = target: T1, GST-tagged Tnks-2 (873-1166 aa) (Homo sapiens, UniProt Q9H2K2); assay: TNKS2 activity ELISA (autoparsylation assay); type: biochemical
T1 construct: GST-tagged Tnks-2 (873-1166 aa, prepared in-house); made in house
Protocol: (§1) Description of the TNKS1 and TNKS2 ELISA Assay
(§2) Biochemical Activity Testing of TNKS 1 and 2: Activity ELISA (Autoparsylation Assay)
(§3) For analysis of autoparsylation activity of TNKS 1 and 2 an activity ELISA is performed: In the first step GST tagged TNKS is captured on a Glutathione coated plate. Then the activity assay with biotinylated NAD is performed in the absence/presence of the compounds. During the enzymatic reaction GST tagged TNKS transfers biotinylated ADP-ribose to itself from biotinylated NAD as co-substrate. For the detection streptavidin-HRP conjugate is added that binds to the biotinylated TNKS and is thereby captured to the plates. The amount of biotinylated resp. autoparsylated TNKS is detected with a luminescence substrate for HRP. The level of the luminescence signal correlates directly with the amount of autoparsylated TNKS and therefore with activity of TNKS.
(§4) The activity ELISA is performed in 384 well Glutathione coated microtiter plates (Express capture Glutathione coated plate, Biocat, Heidelberg, Germany). The plates are pre-equilibrated with PBS. Then the plates are incubated with 50 μl 20 ng/well GST-tagged Tnks-1 (1023-1327 aa, prepared in-house), respectively GST-tagged Tnks-2 (873-1166 aa, prepared in-house) in assay buffer (50 mM HEPES, 4 mM Mg-chloride, 0.05% Pluronic F-68, 2 mM DTT, pH 7.7) overnight at 4° C. The plates are washed 3 times with PBS-Tween-20. The wells are blocked by incubation at room temperature for 20 minutes with 50 μl blocking buffer (PBS, 0.05% Tween-20, 0.5% BSA). Afterwards the plates are washed 3 times with PBS-Tween-20. The enzymatic reaction is performed in 50 μl reaction solution (50 mM HEPES, 4 mM Mg-chloride, 0.05% Pluronic F-68, 1.4 mM DTT, 0.5% DMSO, pH 7.7) with 10 μM bio-NAD (Biolog, Life science Inst., Bremen, Germany) as co-substrate in the absence or presence of the test compound (10 dilution concentrations) for 1 hour at 30° C. The reaction is stopped by 3 times washing with PBS-Tween-20. For the detection 50 μl of 20 ng/μl Streptavidin, HRP conjugate (MoBiTec, Göttingen, Germany) in PBS/0.05% Tween-20/0.01% BSA are added and the plates are incubated for 30 minutes at room temperature. After three times washing with PBS-Tween-20 50 μl of SuperSignal ELISA Femto Maximum sensitivity substrate solution (ThermoFisherScientific (Pierce), Bonn, Germany) are added. Following a 1 minute incubation at room temperature luminescence signals are measured with an Envision multimode reader (Perkin Elmer LAS Germany GmbH) at 700 nm. The full value used is the inhibitor-free reaction. The pharmacological zero value used is XAV-939 (Tocris) in a final concentration of 5 μM. The inhibitory values (IC50) are determined using either the program Symyx Assay Explorer® or Condosseo® from GeneData.

[2] = target: T2, GST-tagged Tankyrase-1 (1023-1327 aa) (Homo sapiens, UniProt O95271); assay: Tankyrase 1 autoparsylation assay (HTRF); type: biochemical; details: read-out: IC50 TNKS1 enzyme assay
T2 construct: GST-tagged Tankyrase-1 (1023-1327 aa)
T2 sequence (O95271 1023-1327): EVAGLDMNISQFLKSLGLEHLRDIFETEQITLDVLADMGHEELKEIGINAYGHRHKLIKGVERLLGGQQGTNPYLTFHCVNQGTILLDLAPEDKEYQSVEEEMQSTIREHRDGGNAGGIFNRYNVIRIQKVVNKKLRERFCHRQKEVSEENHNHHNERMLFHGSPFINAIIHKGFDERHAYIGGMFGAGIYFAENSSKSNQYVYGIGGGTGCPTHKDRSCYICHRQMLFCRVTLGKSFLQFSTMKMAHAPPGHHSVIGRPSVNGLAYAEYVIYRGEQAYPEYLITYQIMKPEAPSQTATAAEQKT
Protocol: (§5) Biochemical activity testing of Tankyrase 1 and 2: Autoparsylation assay
(§6) The autoparsylation assay is run in two steps: the enzymatic reaction in which GST-tagged Tankyrase-1, resp Tankyrase-2 transferred biotinylated ADP-ribose to itself from biotinylated NAD as co-substrate and the detection reaction where a time resolved FRET between cryptate labelled anti-GST bound to the GST tag of the enzyme and Xlent® labelled-streptavidin bound the biotin-parsylation residue is analysed. The autoparsylation activity was detectable directly via the increase in HTRF signal.
(§7) The autoparsylation assay is performed as 384-well HTRF® (Cisbio, Codolet, France) assay format in Greiner low volume nb 384-well microtiter plates and is used for high throughput screen. 250 nM GST-tagged Tankyrase-1 (1023-1327 aa), respectively about 250 nM GST-tagged Tankyrase-2 (873-1166 aa) and 5 μM bio-NAD (Biolog, Life science Inst., Bremen, Germany) as co-substrate are incubated in a total volume of 5 μl (50 mM HEPES, 4 mM Mg-chloride, 0.05% Pluronic F-68, 1.4 mM DTT, 0.5% DMSO, pH 7.7) in the absence or presence of the test compound (10 dilution concentrations) for 90 min at 30° C. The reaction is stopped by the addition of 1 μl 50 mM EDTA solution. 2 μl of the detection solution (1.6 μM SA-Xlent® (Cisbio, Codolet, France), 7.4 nM Anti-GST-K® (Eu-labelled anti-GST, Cisbio, Codolet, France) in 50 mM HEPES, 800 mM KF, 0.1% BSA, 20 mM EDTA, 0.1% CHAPS, pH 7.0) are added. After 1 h incubation at room temperature the HTRF is measured with an Envision multimode reader (Perkin Elmer LAS Germany GmbH) at excitation wavelength 340 nm (laser mode) and emission wavelengths 615 nm and 665 nm. The ratio of the emission signals is determined. The full value used is the inhibitor-free reaction. The pharmacological zero value used is XAV-939 (Tocris) in a final concentration of 5 μM. The inhibitory values (IC50) are determined using either the program Symyx Assay Explorer® or Condosseo® from GeneData.

[3] = target: T3, His-tagged Parp-1 (Homo sapiens, UniProt P09874); assay: PARP-1 autoparsylation assay (HTRF); type: biochemical; details: PARP-1 autoparsylation HTRF
T3 construct: purchased Enzo Life Sciences GmbH, Lörrach, Germany
T3 sequence (P09874 whole entry): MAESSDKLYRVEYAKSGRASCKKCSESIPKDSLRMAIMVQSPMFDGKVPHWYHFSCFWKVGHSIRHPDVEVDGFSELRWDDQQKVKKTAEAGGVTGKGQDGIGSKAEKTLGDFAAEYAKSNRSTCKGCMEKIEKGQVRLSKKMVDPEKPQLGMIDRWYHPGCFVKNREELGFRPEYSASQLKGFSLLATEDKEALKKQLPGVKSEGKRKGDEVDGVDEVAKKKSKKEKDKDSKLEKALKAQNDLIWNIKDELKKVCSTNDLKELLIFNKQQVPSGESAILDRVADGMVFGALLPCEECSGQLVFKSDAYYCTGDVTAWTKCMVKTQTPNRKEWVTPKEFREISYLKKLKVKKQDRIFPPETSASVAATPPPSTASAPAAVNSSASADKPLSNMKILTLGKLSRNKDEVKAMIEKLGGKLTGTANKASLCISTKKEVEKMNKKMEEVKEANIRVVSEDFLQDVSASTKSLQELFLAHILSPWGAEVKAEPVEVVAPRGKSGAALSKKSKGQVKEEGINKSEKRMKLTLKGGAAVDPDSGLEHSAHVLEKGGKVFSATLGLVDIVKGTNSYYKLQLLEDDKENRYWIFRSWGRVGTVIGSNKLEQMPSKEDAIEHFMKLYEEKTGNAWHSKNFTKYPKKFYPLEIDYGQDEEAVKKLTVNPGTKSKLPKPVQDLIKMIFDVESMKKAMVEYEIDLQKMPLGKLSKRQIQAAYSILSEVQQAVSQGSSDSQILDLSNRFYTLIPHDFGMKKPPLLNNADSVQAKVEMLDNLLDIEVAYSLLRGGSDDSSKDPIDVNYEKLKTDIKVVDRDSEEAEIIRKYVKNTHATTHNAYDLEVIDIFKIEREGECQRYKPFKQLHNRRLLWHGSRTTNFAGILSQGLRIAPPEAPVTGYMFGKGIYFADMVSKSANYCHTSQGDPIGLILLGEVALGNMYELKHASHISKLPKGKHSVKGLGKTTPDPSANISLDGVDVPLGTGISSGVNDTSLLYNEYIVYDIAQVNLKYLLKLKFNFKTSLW
Text: Description of the PARP1 Assay
Biochemical Activity Testing of PARP-1: Autoparsylation Assay
as §6, with “His-tagged Parp-1 transfers” for “GST-tagged Tankyrase-1, resp Tankyrase-2 transferred”, “ADP-ribose/ADP-ribose” for “ADP-ribose”, “NAD/NAD” for “NAD”, “anti-His antibody” for “anti-GST”, “His” for “GST”, “is” for “was”
The autoparsylation assay is performed as 384-well HTRF® (Cisbio, Codolet, France) assay format in Greiner low volume nb 384-well microtiter plates. 35 nM His-tagged Parp-1 (human, recombinant, Enzo Life Sciences GmbH, Lörrach, Germany) and a mixture of 125 nM bio-NAD (Biolog, Life science Inst., Bremen, Germany) and 800 nM NAD as co-substrate are incubated in a total volume of 6 μl (100 mM Tris/HCl, 4 mM Mg-chloride, 0.01% IGEPAL® CA630, 1 mM DTT, 0.5% DMSO, pH 8, 13 ng/μl activated DNA (BPS Bioscience, San Diego, US)) in the absence or presence of the test compound (10 dilution concentrations) for 150 min at 23° C. The reaction is stopped by the addition of 4 μl of the Stop/detection solution (70 nM SA-Xlent® (Cisbio, Codolet, France), 2.5 nM Anti-His-K® (Eu-labelled anti-His, Cisbio, Codolet, France) in 50 mM HEPES, 400 mM KF, 0.1% BSA, 20 mM EDTA, pH 7.0). After 1 h incubation at room temperature the HTRF is measured with an Envision multimode reader (Perkin Elmer LAS Germany GmbH) at excitation wavelength 340 nm (laser mode) and emission wavelengths 615 nm and 665 nm. The ratio of the emission signals is determined. The full value used is the inhibitor-free reaction. The pharmacological zero value used is Olaparib (LClabs, Woburn, US) in a final concentration of 1 μM. The inhibitory values (IC50) are determined using either the program Symyx Assay Explorer® or Condosseo® from GeneData.

[4] = target: T4, GST-tagged Tnks-1 (1023-1327 aa) (Homo sapiens, UniProt O95271); assay: TNKS1 activity ELISA (autoparsylation assay); type: biochemical
T4 construct: GST-tagged Tnks-1 (1023-1327 aa, prepared in-house); made in house
T4 sequence (O95271 1023-1327): as the sequence (O95271 1023-1327) above
Protocol: as §1, §2, §3, §4

[5] = target: T5, GST-tagged Tankyrase-2 (873-1166 aa) (Homo sapiens, UniProt Q9H2K2); assay: Tankyrase 2 autoparsylation assay (HTRF); type: biochemical; details: read-out: IC50 TNKS2 enzyme assay
T5 construct: GST-tagged Tankyrase-2 (873-1166 aa)
T5 sequence (Q9H2K2 873-1166): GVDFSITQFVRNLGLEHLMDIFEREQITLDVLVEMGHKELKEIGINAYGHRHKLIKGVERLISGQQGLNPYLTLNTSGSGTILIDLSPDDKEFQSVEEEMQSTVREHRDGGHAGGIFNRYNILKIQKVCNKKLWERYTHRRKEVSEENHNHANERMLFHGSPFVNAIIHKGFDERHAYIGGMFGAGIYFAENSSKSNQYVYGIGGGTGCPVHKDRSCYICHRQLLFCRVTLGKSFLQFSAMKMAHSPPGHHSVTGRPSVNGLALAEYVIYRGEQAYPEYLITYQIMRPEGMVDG
Protocol: as §5, §6, §7

[6] = system: Tankyrases; assay: Cellular inhibition of Tankyrase, Axin2 level in DLD1 cells (Luminex); type: cell-based; details: Axin2 increase, 24 hours, read-out: EC50 [M] TNKS cellular assay
Protocol: Measurement of Cellular Inhibition of Tankyrase
Since Tankyrases have been described to modulate cellular level of Axin2 (Huang et al., 2009; Nature) the increase of Axin2 level is used as read-out for determination of cellular inhibition of Tankyrases in a Luminex based assay.
Cells of the colon carcinoma cell line DLD1 are plated in 96 well plates with 1.5×10^4 cells per well. Next day, cells are treated with a serial dilution of test compound in seven steps as triplicates with a final DMSO concentration of 0.3%. After 24 hours, cells are lysed in lysis buffer (20 mM Tris/HCl pH 8.0, 150 mM NaCl, 1% NP40, 10% Glycerol) and lysates are cleared by centrifugation through a 96 well filter plate (0.65 μm). Axin2 protein is isolated from cell lysates by incubation with a monoclonal anti-Axin2 antibody (R&D Systems #MAB6078) that is bound to fluorescent carboxybeads. Then, bound Axin2 is specifically detected with a polyclonal anti-Axin2 antibody (Cell Signaling #2151) and an appropriate PE-fluorescent secondary antibody. The amount of isolated Axin2 protein is determined in a Luminex^200 machine (Luminex Corporation) according to the manufacturer's instruction by counting 100 events per well. Inhibition of Tankyrase by test compounds results in higher levels of Axin2 which directly correlates with an increase of detectable fluorescence. As controls cells are treated with solvent alone (neutral control) and with a Tankyrase reference inhibitor IWR-2 (3E-06 M) which refers as control for maximum increase of Axin2. For analysis, the obtained data are normalized against the untreated solvent control and fitted for determination of the EC50 values using the Assay Explorer software (Accelrys).

[7] = system: DLD-1-cancer cells; details: Huang et al., 2009; cited from earlier work
[8] = system: β-catenin; details: Huang et al., 2009; cited from earlier work

T1 sequence (Q9H2K2 873-1166): as above

Structure (SMILES) | IC50 [1] [nM] | IC50 [2] [nM] | IC50 [3] [nM] | IC50 [4] [nM] | IC50 [5] [nM] | EC50 [6] [M] | growth of DLD-1-cancer cells [7] | Wnt-stimulated accumulation of β-catenin [8]
Cc1ccc(-c2cn3cncc3c(=O)[nH]2)cc1 [Compound A1, 6-p-tolyl-7H-imidazo[1,5-a]pyrazin-8-one] | 300 to 3000 | 300 to 3000 | 3000 to 50000 | 300 to 3000 | 300 to 3000 |  |  | 
CC(C)(C)c1ccc(-c2cn3cncc3c(=O)[nH]2)cc1 [Compound A2, 6-(4-tert-Butyl-phenyl)-7H-imidazo[1,5-a]pyrazin-8-one] | < 300 | < 300 | 3000 to 50000 | < 300 | 300 to 3000 | 3e-07 to 3e-06 |  | 
O=c1[nH]c(-c2ccc(C(F)(F)F)cc2)cn2cncc12 [Compound A3, 6-(4-Trifluoromethyl-phenyl)-7H-imidazo[1,5-a]pyrazin-8-one] | < 300 | 300 to 3000 |  | < 300 | 300 to 3000 |  |  | 
Cn1cc(-c2ccc(-c3cn4cncc4c(=O)[nH]3)cc2)cn1 [Compound A4, 6-[4-(1-methyl-1H-pyrazol-4-yl)-phenyl]-7H-imidazo[1,5-a]pyrazin-8-one] | < 300 | 300 to 3000 |  | < 300 | 300 to 3000 |  |  | 
O=c1[nH]c(-c2ccc(CO)cc2)cn2cncc12 [Compound A5, 6-(4-hydroxymethyl-phenyl)-7H-imidazo[1,5-a]pyrazin-8-one] | < 300 | 300 to 3000 |  | < 300 | 300 to 3000 |  |  | 
CC(C)(O)c1ccc(-c2cn3cncc3c(=O)[nH]2)cc1 [Compound A6, 6-[4-(1-hydroxy-1-methyl-ethyl)-phenyl]-7H-imidazo[1,5-a]pyrazin-8-one] | < 300 | 300 to 3000 | 3000 to 50000 | < 300 | 300 to 3000 |  |  | 
Cc1ncc2c(=O)[nH]c(-c3ccc(C(C)(C)C)cc3)cn12 [Compound A7, 6-(4-tert-butyl-phenyl)-3-methyl-7H-imidazo[1,5-a]pyrazin-8-one] | < 300 | 300 to 3000 |  | < 300 | 300 to 3000 | < 3e-07 |  | 
Cc1ncc2c(=O)[nH]c(-c3ccc(C(C)(C)O)cc3)cn12 [Compound A8, 6-[4-(1-hydroxy-1-methyl-ethyl)-phenyl]-3-methyl-7H-imidazo[1,5-a]pyrazin-one] |  |  |  |  |  | 3e-07 to 3e-06 |  | 
Oc1nc(-c2ccc(C(F)(F)F)cc2)nc2c1CSCC2 [XAV939] |  |  |  |  |  |  | inhibits growth | blocked
